Test results reported in PubChem BioAssay (NCI).
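Protocol summary: plate cells (96-well), add compound at 5 concentrations, incubate 48 h, interpolate endpoints linearly. Here, GI50 denotes the concentration required for 50% inhibition of growth. At the TGI there is no net growth.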

Assays:
Experiment in all cases: NCI-60 cell line screen, 48 h
SK-MEL-5 melanoma = test system: SK-MEL-5 melanoma
SK-OV-3 ovarian = test system: SK-OV-3 ovarian
786-0 renal = test system: 786-0 renal
EKVX NSCLC = test system: EKVX NSCLC
SR leukemia = test system: SR leukemia
SF-539 CNS = test system: SF-539 CNS
HCC-2998 colon = test system: HCC-2998 colon
OVCAR-3 ovarian = test system: OVCAR-3 ovarian
HCT-15 colon = test system: HCT-15 colon
K-562 leukemia = test system: K-562 leukemia
SW-620 colon = test system: SW-620 colon
SK-MEL-2 melanoma = test system: SK-MEL-2 melanoma
MDA-MB-231 breast = test system: MDA-MB-231 breast
TK-10 renal = test system: TK-10 renal
A549 NSCLC = test system: A549 NSCLC
OVCAR-5 ovarian = test system: OVCAR-5 ovarian
OVCAR-8 ovarian = test system: OVCAR-8 ovarian
CAKI-1 renal = test system: CAKI-1 renal
DU-145 prostate = test system: DU-145 prostate
RXF 393 renal = test system: RXF 393 renal
SN12C renal = test system: SN12C renal
U251 CNS = test system: U251 CNS
RPMI-8226 leukemia = test system: RPMI-8226 leukemia
ACHN renal = test system: ACHN renal
LOX IMVI melanoma = test system: LOX IMVI melanoma
HS 578T breast = test system: HS 578T breast
MOLT-4 leukemia = test system: MOLT-4 leukemia
HL-60(TB) leukemia = test system: HL-60(TB) leukemia
OVCAR-4 ovarian = test system: OVCAR-4 ovarian
HOP-92 NSCLC = test system: HOP-92 NSCLC
MDA-MB-435 = test system: MDA-MB-435
SF-268 CNS = test system: SF-268 CNS
SK-MEL-28 melanoma = test system: SK-MEL-28 melanoma
UACC-257 melanoma = test system: UACC-257 melanoma
HT29 colon = test system: HT29 colon
MCF7 breast = test system: MCF7 breast
HCT-116 colon = test system: HCT-116 colon
SF-295 CNS = test system: SF-295 CNS
SNB-19 CNS = test system: SNB-19 CNS
PC-3 prostate = test system: PC-3 prostate
NCI/ADR-RES ovarian = test system: NCI/ADR-RES ovarian
IGROV1 ovarian = test system: IGROV1 ovarian
CCRF-CEM leukemia = test system: CCRF-CEM leukemia
HOP-62 NSCLC = test system: HOP-62 NSCLC
KM12 colon = test system: KM12 colon
NCI-H460 lung = test system: NCI-H460 lung
COLO 205 colon = test system: COLO 205 colon
UO-31 renal = test system: UO-31 renal
MALME-3M melanoma = test system: MALME-3M melanoma
UACC-62 melanoma = test system: UACC-62 melanoma
SNB-75 CNS = test system: SNB-75 CNS
M14 melanoma = test system: M14 melanoma
BT-549 breast = test system: BT-549 breast
NCI-H23 lung = test system: NCI-H23 lung
NCI-H522 lung = test system: NCI-H522 lung
T-47D breast = test system: T-47D breast
NCI-H226 lung = test system: NCI-H226 lung
A498 renal = test system: A498 renal

COc1cc(C(=O)NC2c3ccccc3-c3ccccc32)c(N)cc1OCc1ccccc1
GI50 (SK-MEL-5 melanoma): 27.5 µM
TGI (SK-MEL-5 melanoma): > 100 µM
GI50 (SK-OV-3 ovarian): 16.9 µM
TGI (SK-OV-3 ovarian): 43.8 µM
GI50 (786-0 renal): 21.4 µM
TGI (786-0 renal): > 60.8 µM
GI50 (EKVX NSCLC): 5.28 µM
TGI (EKVX NSCLC): 45 µM
GI50 (SR leukemia): 98.6 µM
TGI (SR leukemia): > 100 µM
GI50 (SF-539 CNS): 11.8 µM
TGI (SF-539 CNS): 28.3 µM
GI50 (HCC-2998 colon): > 100 µM
TGI (HCC-2998 colon): > 100 µM
GI50 (OVCAR-3 ovarian): 24.2 µM
TGI (OVCAR-3 ovarian): > 87.3 µM
GI50 (HCT-15 colon): > 74.8 µM
TGI (HCT-15 colon): > 100 µM
GI50 (K-562 leukemia): 15.9 µM
TGI (K-562 leukemia): > 100 µM
GI50 (SW-620 colon): 66.4 µM
TGI (SW-620 colon): > 100 µM
GI50 (SK-MEL-2 melanoma): 33.7 µM
TGI (SK-MEL-2 melanoma): 98.9 µM
GI50 (MDA-MB-231 breast): 17.2 µM
TGI (MDA-MB-231 breast): 47.1 µM
GI50 (TK-10 renal): 26.2 µM
TGI (TK-10 renal): 69.6 µM
GI50 (A549 NSCLC): 17.9 µM
TGI (A549 NSCLC): > 100 µM
GI50 (OVCAR-5 ovarian): 52.5 µM
TGI (OVCAR-5 ovarian): > 100 µM
GI50 (OVCAR-8 ovarian): 24.2 µM
TGI (OVCAR-8 ovarian): > 100 µM
GI50 (CAKI-1 renal): 16.1 µM
TGI (CAKI-1 renal): 63.8 µM
GI50 (DU-145 prostate): 2.87 µM
TGI (DU-145 prostate): > 100 µM
GI50 (RXF 393 renal): 13.5 µM
TGI (RXF 393 renal): 34.7 µM
GI50 (SN12C renal): 11.4 µM
TGI (SN12C renal): 48.9 µM
GI50 (U251 CNS): 14.4 µM
TGI (U251 CNS): 34.7 µM
GI50 (RPMI-8226 leukemia): 97.5 µM
TGI (RPMI-8226 leukemia): > 100 µM
GI50 (ACHN renal): 23 µM
TGI (ACHN renal): > 92.3 µM
GI50 (LOX IMVI melanoma): 63.6 µM
TGI (LOX IMVI melanoma): > 100 µM
GI50 (HS 578T breast): 14.5 µM
TGI (HS 578T breast): 79.1 µM
GI50 (MOLT-4 leukemia): > 78.4 µM
TGI (MOLT-4 leukemia): > 100 µM
GI50 (HL-60(TB) leukemia): > 71.7 µM
TGI (HL-60(TB) leukemia): > 100 µM
GI50 (OVCAR-4 ovarian): 5.16 µM
TGI (OVCAR-4 ovarian): 32.2 µM
GI50 (HOP-92 NSCLC): 14.2 µM
TGI (HOP-92 NSCLC): 33.6 µM
GI50 (MDA-MB-435): > 100 µM
TGI (MDA-MB-435): > 100 µM
GI50 (SF-268 CNS): 16.8 µM
TGI (SF-268 CNS): > 62.1 µM
GI50 (SK-MEL-28 melanoma): 25.2 µM
TGI (SK-MEL-28 melanoma): > 92.7 µM
GI50 (UACC-257 melanoma): 58.7 µM
TGI (UACC-257 melanoma): > 100 µM
GI50 (HT29 colon): 69.7 µM
TGI (HT29 colon): > 100 µM
GI50 (MCF7 breast): 42.8 µM
TGI (MCF7 breast): > 100 µM
GI50 (HCT-116 colon): 20.3 µM
TGI (HCT-116 colon): > 82.7 µM
GI50 (SF-295 CNS): 15.4 µM
TGI (SF-295 CNS): 41 µM
GI50 (SNB-19 CNS): 22.6 µM
TGI (SNB-19 CNS): 58 µM
GI50 (PC-3 prostate): 27.5 µM
TGI (PC-3 prostate): > 66.1 µM
GI50 (NCI/ADR-RES ovarian): 35.3 µM
TGI (NCI/ADR-RES ovarian): > 100 µM
GI50 (IGROV1 ovarian): 34.3 µM
TGI (IGROV1 ovarian): > 100 µM
GI50 (CCRF-CEM leukemia): > 100 µM
TGI (CCRF-CEM leukemia): > 100 µM
GI50 (HOP-62 NSCLC): 10.6 µM
TGI (HOP-62 NSCLC): 38.4 µM
GI50 (KM12 colon): > 100 µM
TGI (KM12 colon): > 100 µM
GI50 (NCI-H460 lung): 35.1 µM
TGI (NCI-H460 lung): > 100 µM
GI50 (COLO 205 colon): 63.9 µM
TGI (COLO 205 colon): > 100 µM
GI50 (UO-31 renal): 30.2 µM
TGI (UO-31 renal): > 100 µM
GI50 (MALME-3M melanoma): 26.6 µM
TGI (MALME-3M melanoma): > 76.6 µM
GI50 (UACC-62 melanoma): 20.1 µM
TGI (UACC-62 melanoma): 67.5 µM
GI50 (SNB-75 CNS): 7.84 µM
TGI (SNB-75 CNS): 30.7 µM
GI50 (M14 melanoma): 47 µM
TGI (M14 melanoma): > 100 µM
GI50 (BT-549 breast): 17 µM
TGI (BT-549 breast): 42.2 µM
GI50 (NCI-H23 lung): 30.6 µM
TGI (NCI-H23 lung): > 100 µM
GI50 (NCI-H522 lung): 34.7 µM
TGI (NCI-H522 lung): > 100 µM
GI50 (T-47D breast): 29.5 µM
TGI (T-47D breast): > 100 µM
GI50 (NCI-H226 lung): 11.4 µM
TGI (NCI-H226 lung): 44.3 µM
GI50 (A498 renal): 37 µM
TGI (A498 renal): > 100 µM
